Test results from publication PMC9090415, “Discovery of small molecule inhibitors of Plasmodium falciparum apicoplast DNA polymerase” (Journal of Enzyme Inhibition and Medicinal Chemistry, 2022).

Target: P. falciparum apicoplast DNA polymerase (Pf-apPOL) (Plasmodium falciparum, UniProt Q8ILY1)
Experiment: Fluorescence-based high-throughput DNA polymerase assay (molecular beacon), primary screen and dose-response;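 for % inhibition Apol 40': compound concentration given in µM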
Format: biochemical
Settings: for DNA Pol: 90 min, 10 µM
Outline: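 Single-point screening used 10 µM compound with 20 nM polymerase, 20 nM hairpin substrate and 6 µM dNTPs for 90 min at 25 °C. Confirmatory titrations (2.5–80 µM) followed fluorescence at three times, and IC50 was derived from a fit including a cooperativity term n.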

Chain of P. falciparum apicoplast DNA polymerase (Pf-apPOL) (Q8ILY1 entry or part of it): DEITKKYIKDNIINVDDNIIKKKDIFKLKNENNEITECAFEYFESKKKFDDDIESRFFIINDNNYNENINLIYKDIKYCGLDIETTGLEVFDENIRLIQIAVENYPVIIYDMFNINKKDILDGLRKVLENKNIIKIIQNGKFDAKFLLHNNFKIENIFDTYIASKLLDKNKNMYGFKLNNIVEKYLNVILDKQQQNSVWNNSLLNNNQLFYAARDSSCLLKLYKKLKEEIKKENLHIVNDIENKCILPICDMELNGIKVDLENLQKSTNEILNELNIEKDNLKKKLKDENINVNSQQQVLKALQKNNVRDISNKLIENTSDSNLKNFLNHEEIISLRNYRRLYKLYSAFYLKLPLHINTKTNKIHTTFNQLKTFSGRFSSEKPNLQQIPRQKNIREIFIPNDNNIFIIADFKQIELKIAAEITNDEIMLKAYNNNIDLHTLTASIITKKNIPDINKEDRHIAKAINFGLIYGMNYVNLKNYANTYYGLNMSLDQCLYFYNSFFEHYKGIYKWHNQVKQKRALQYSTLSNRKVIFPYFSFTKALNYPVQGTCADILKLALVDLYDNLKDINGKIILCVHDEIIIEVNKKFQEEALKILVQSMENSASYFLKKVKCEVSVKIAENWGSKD

For O=C(CSc1nnc(-c2ccco2)[nH]1)c1ccc(Cl)cc1 [KU0029065], the “DNA Pol” value ("DNA Pol" of the 186 hits list (screen value)) was 40, the “% inhibition Apo pol 10'” value (DRC-1, concentration 2.5) was 25.2453% and the “% inhibition Apo pol 10'” value (DRC-1, concentration 5) was 33.7865%. The “% inhibition Apo pol 10'” value (DRC-1, concentration 10) was 71.7651%, the “% inhibition Apo pol 10'” value (DRC-1, concentration 20) was 81.7468% and the “% inhibition Apo pol 10'” value (DRC-1, concentration 40) was 82.8592%. For the same compound, the “% inhibition Apo pol 10'” value (DRC-1, concentration 80) was 73.082%, the “% inhibition Apol 90'” value (DRC-1, concentration 2.5) was 14.2802% and the “% inhibition Apol 90'” value (DRC-1, concentration 5) was 16.5602%. For the same compound, the “% inhibition Apol 90'” value (DRC-1, concentration 10) was 48.3315%, the “% inhibition Apol 90'” value (DRC-1, concentration 20) was 65.2838% and the “% inhibition Apol 90'” value (DRC-1, concentration 40) was 75.799%. The “% inhibition Apol 90'” value (DRC-1, concentration 80) was 79.1006%, the “% inhibition apPOL 180'” value (DRC-1, concentration 2.5) was 10.7111% and the “% inhibition apPOL 180'” value (DRC-1, concentration 5) was 8.15%. The “% inhibition apPOL 180'” value (DRC-1, concentration 10) was 30.1123%, the “% inhibition apPOL 180'” value (DRC-1, concentration 20) was 47.4786% and the “% inhibition apPOL 180'” value (DRC-1, concentration 40) was 65.3498%. For the same compound, the “% inhibition apPOL 180'” value (DRC-1, concentration 80) was 74.7958%, the “% inhibition Apo pol 5'” value (DRC-2, concentration 2.5) was -0.174% and the “% inhibition Apo pol 5'” value (DRC-2, concentration 5) was -0.717%. For the same compound, the “% inhibition Apo pol 5'” value (DRC-2, concentration 10) was 6%, the “% inhibition Apo pol 5'” value (DRC-2, concentration 20) was 26% and the “% inhibition Apo pol 5'” value (DRC-2, concentration 40) was -5.63%. The “% inhibition Apo pol 5'” value (DRC-2, concentration 80) was -27%, the “% inhibition Apol 40'” value (DRC-2, concentration 2.5) was 0.888% and the “% inhibition Apol 40'” value (DRC-2, concentration 5) was 0.406%. For the same compound, the “% inhibition Apol 40'” value (DRC-2, concentration 10) was 7%, the “% inhibition Apol 40'” value (DRC-2, concentration 20) was 17% and the “% inhibition Apol 40'” value (DRC-2, concentration 40) was 0.537%. The “% inhibition Apol 40'” value (DRC-2, concentration 80) was -50%, the “% inhibition ApPOL 90'” value (DRC-2, concentration 2.5) was 1.21% and the “% inhibition ApPOL 90'” value (DRC-2, concentration 5) was -0.831%. For the same compound, the “% inhibition ApPOL 90'” value (DRC-2, concentration 10) was 6%, the “% inhibition ApPOL 90'” value (DRC-2, concentration 20) was 23% and the “% inhibition ApPOL 90'” value (DRC-2, concentration 40) was -0.138%. For the same compound, the “% inhibition ApPOL 90'” value (DRC-2, concentration 80) was -49%, the “% inhibition apPOL 180'” value (DRC-2, concentration 2.5) was 0.33% and the “% inhibition apPOL 180'” value (DRC-2, concentration 5) was -8%. The “% inhibition apPOL 180'” value (DRC-2, concentration 10) was -2.67%, the “% inhibition apPOL 180'” value (DRC-2, concentration 20) was 15% and the “% inhibition apPOL 180'” value (DRC-2, concentration 40) was -5%. The “% inhibition apPOL 180'” value (DRC-2, concentration 80) was -45% and the “DNA Pol” value (primary screen value, DNA Pol) was 40.

In the case of CCC(C)NC(=O)c1cc(NC(C)=O)cc2nc(C)ccc12 (stereo not shown) [KU0206314], the “DNA Pol” value ('DNA Pol' of the 186 hits list (primary screen value)) is reported as 24, the “DNA Pol” value (DNA Pol (primary screen value)) is reported as 24 and the “% inhibition Apo pol 10'” value (DRC-1, concentration 2.5) is reported as 2.024%. For the same compound, the “% inhibition Apo pol 10'” value (DRC-1, concentration 5) was 11.6857%, the “% inhibition Apo pol 10'” value (DRC-1, concentration 10) was 27.7087% and the “% inhibition Apo pol 10'” value (DRC-1, concentration 20) was 37.1675%. For the same compound, the “% inhibition Apo pol 10'” value (DRC-1, concentration 40) was 74.587%, the “% inhibition Apo pol 10'” value (DRC-1, concentration 80) was 89.0945% and the “% inhibition Apol 90'” value (DRC-1, concentration 2.5) was -1.658%. For the same compound, the “% inhibition Apol 90'” value (DRC-1, concentration 5) was 3.672%, the “% inhibition Apol 90'” value (DRC-1, concentration 10) was 15.6061% and the “% inhibition Apol 90'” value (DRC-1, concentration 20) was 20.1807%. For the same compound, the “% inhibition Apol 90'” value (DRC-1, concentration 40) was 54.0066%, the “% inhibition Apol 90'” value (DRC-1, concentration 80) was 77.404% and the “% inhibition apPOL 180'” value (DRC-1, concentration 2.5) was -4.723%. The “% inhibition apPOL 180'” value (DRC-1, concentration 5) was -1.48%, the “% inhibition apPOL 180'” value (DRC-1, concentration 10) was 7.7142% and the “% inhibition apPOL 180'” value (DRC-1, concentration 20) was 9.245%. The “% inhibition apPOL 180'” value (DRC-1, concentration 40) was 37.6309%, the “% inhibition apPOL 180'” value (DRC-1, concentration 80) was 66.384% and the “% inhibition Apo pol 5'” value (DRC-2, concentration 2.5) was 10%. For the same compound, the “% inhibition Apo pol 5'” value (DRC-2, concentration 5) was 11%, the “% inhibition Apo pol 5'” value (DRC-2, concentration 10) was 29% and the “% inhibition Apo pol 5'” value (DRC-2, concentration 20) was 42%. The “% inhibition Apo pol 5'” value (DRC-2, concentration 40) was 49%, the “% inhibition Apo pol 5'” value (DRC-2, concentration 80) was 53% and the “% inhibition Apol 40'” value (DRC-2, concentration 2.5) was 7%. The “% inhibition Apol 40'” value (DRC-2, concentration 5) was 7%, the “% inhibition Apol 40'” value (DRC-2, concentration 10) was 25% and the “% inhibition Apol 40'” value (DRC-2, concentration 20) was 40%. For the same compound, the “% inhibition Apol 40'” value (DRC-2, concentration 40) was 58%, the “% inhibition Apol 40'” value (DRC-2, concentration 80) was 70% and the “% inhibition ApPOL 90'” value (DRC-2, concentration 2.5) was 5.39%. For the same compound, the “% inhibition ApPOL 90'” value (DRC-2, concentration 5) was 6%, the “% inhibition ApPOL 90'” value (DRC-2, concentration 10) was 21% and the “% inhibition ApPOL 90'” value (DRC-2, concentration 20) was 35%. The “% inhibition ApPOL 90'” value (DRC-2, concentration 40) was 57%, the “% inhibition ApPOL 90'” value (DRC-2, concentration 80) was 73% and the “% inhibition apPOL 180'” value (DRC-2, concentration 2.5) was 1.48%. For the same compound, the “% inhibition apPOL 180'” value (DRC-2, concentration 5) was 0.928%, the “% inhibition apPOL 180'” value (DRC-2, concentration 10) was 12% and the “% inhibition apPOL 180'” value (DRC-2, concentration 20) was 23%. The “% inhibition apPOL 180'” value (DRC-2, concentration 40) was 48% and the “% inhibition apPOL 180'” value (DRC-2, concentration 80) was 72%.
